# Experimental data from patent US12545637B2, “Extrahepatic targeted cationic lipid compound with high efficiency and low toxicity and its composition” (BEIJING YOUCARE KECHUANG PHARMACEUTICAL TECHNOLOGY CO., LTD., priority 2023, dated 2026).
# Columns and labels:
# [1] = system: female BALB/C mice; assay: In vivo imaging in mice of Fluc-mRNA LNP formulations (mRNA expression and duration)
# Method in brief: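 Female BALB/C mice (4-6 weeks, 17-19 g) received LNP carrying […] Fluc-mRNA intramuscularly. At 6h, 24 h, 48h and 7d, fluorescent imaging substrate was given intraperitoneally and after 5 minutes average radiance, as a measure of expressed protein, was imaged on an IVIS Spectrum system.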
# [2] = system: 293T cells; assay: Fluorescent detection of Fluc-mRNA (cell transfection efficiency of LNP formulations); type: cell-based
# [3] = Detection of encapsulation efficiency, drug loading concentration and total RNA concentration (RiboGreen); type: physicochemical
# Method in brief: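 Samples were diluted in 1×TE to about […], combined with TE and 0.1% Triton X-100 buffers, and held at 37 °C for 10 minutes before dye addition.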
# [4] = Particle size and polydispersity index (PDI) of lipid nanoparticles by dynamic light scattering; type: physicochemical
# Experimental: The particle size and polydispersity index (PDI) were determined by dynamic light scattering using Malvern laser particle size analyzer.
# 10 μL of the liposome solution was weighed, diluted to 1 mL with RNase-free deionized water, and added to the sample pool. Each sample was measured in triplicate. The measurement conditions were: […] scattering angle, and 25° C.
# [5] = LNP formulation prepared from the cationic lipid
smiles,measurement,setting,value
"CCCCCCCCC(CCCCCCCC)COC(=O)CCCCCN(CCCO)CCCN(CCCO)CCCCCC(=O)OCC(CCCCCCCC)CCCCCCCC [YK-423, di(2-octyldecyl) 6,6′-(propan-1,3-diyl-bis((3-hydroxypropyl)azanediyl))dihexanoate]","average radiation intensity, times that of ALC-0315",[1]; 6 h,1.94
same,"average radiation intensity, times that of HHMA",[1]; 6 h,2.46
same,"average radiation intensity, times that of SM-102",[1]; 6 h,2.35
same,"average radiation intensity, times that of compound 21",[1]; 6 h,2.71
same,"average radiation intensity, times that of compound 23",[1]; 6 h,2.80
same,"expression amount in mice, times that of YK-415",[1]; 6 h,13.81
same,"expression amount in mice, times that of YK-417",[1]; 6 h,26.91
same,"mRNA expression in mice, times that of YK-411",[1]; 6 h,278.19
same,"average radiation intensity, times that of ALC-0315",[1]; 24 h,3.99
same,"average radiation intensity, times that of HHMA",[1]; 24 h,6.30
same,"average radiation intensity, times that of SM-102",[1]; 24 h,6.13
same,"average radiation intensity, times that of compound 21",[1]; 24 h,6.81
same,"average radiation intensity, times that of compound 23",[1]; 24 h,7.49
same,"expression amount in mice, times that of YK-415",[1]; 24 h,11.73
same,"expression amount in mice, times that of YK-417",[1]; 24 h,37.85
same,"mRNA expression in mice, times that of YK-411",[1]; 24 h,374.12
same,"average radiation intensity, times that of ALC-0315",[1]; 48 h,8.73
same,"average radiation intensity, times that of HHMA",[1]; 48 h,10.50
same,"average radiation intensity, times that of SM-102",[1]; 48 h,10.65
same,"average radiation intensity, times that of compound 21",[1]; 48 h,11.10
same,"average radiation intensity, times that of compound 23",[1]; 48 h,10.64
same,"expression amount in mice, times that of YK-415",[1]; 48 h,22.17
same,"expression amount in mice, times that of YK-417",[1]; 48 h,49.70
same,"mRNA expression in mice, times that of YK-411",[1]; 48 h,359.10
same,"average radiation intensity, times that of ALC-0315",[1]; 7 d,1.44
same,"average radiation intensity, times that of HHMA",[1]; 7 d,1.69
same,"average radiation intensity, times that of SM-102",[1]; 7 d,1.50
same,"average radiation intensity, times that of compound 21",[1]; 7 d,1.58
same,"average radiation intensity, times that of compound 23",[1]; 7 d,1.65
same,"expression amount in mice, times that of YK-415",[1]; 7 d,2.50
same,"expression amount in mice, times that of YK-417",[1]; 7 d,4.42
same,"mRNA expression in mice, times that of YK-411",[1]; 7 d,21.03
same,"average radiation intensity, 6 h","[1]; Fluc-mRNA LNP intramuscular, 6 h after administration",1627420
same,"average radiation intensity, 24 h","[1]; Fluc-mRNA LNP intramuscular, 24 h after administration",756472
same,"average radiation intensity, 48 h","[1]; Fluc-mRNA LNP intramuscular, 48 h after administration",350120
same,"average radiation intensity, 7 d","[1]; Fluc-mRNA LNP intramuscular, 7 d after administration",10093
same,"RLU value, times that of ALC-0315",[2]; ratio vs ALC-0315,2.84
same,"RLU value, times that of HHMA",[2]; ratio vs HHMA,3.00
same,"RLU value, times that of Lipofectamine 3000",[2]; ratio vs Lipofectamine 3000,5.19
same,"RLU value, times that of YK-009",[2]; ratio vs YK-009,1.21
same,"RLU value, times that of YK-405",[2]; ratio vs YK-405,1.95
same,"RLU value, times that of YK-406",[2]; ratio vs YK-406,79.58
same,"RLU value, times that of YK-408",[2]; ratio vs YK-408,4.22
same,"RLU value, times that of YK-409",[2]; ratio vs YK-409,9.30
same,"RLU value, times that of YK-410",[2]; ratio vs YK-410,15.27
same,"cell transfection efficiency, times that of YK-412",[2]; ratio vs YK-412,1.85
same,"cell transfection efficiency, times that of YK-413",[2]; ratio vs YK-413,4.52
same,"cell transfection efficiency, times that of YK-414",[2]; ratio vs YK-414,14.02
same,"cell transfection efficiency, times that of YK-416",[2]; ratio vs YK-416,1.57
same,"cell transfection efficiency, times that of YK-419",[2]; ratio vs YK-419,1.97
same,"cell transfection efficiency, times that of YK-420",[2]; ratio vs YK-420,1.55
same,"cell transfection efficiency, times that of YK-421",[2]; ratio vs YK-421,13.35
same,Drug loading concentration,[3]; [5],37.47 µg/mL
same,Encapsulation efficiency,[3]; [5],89.7%
same,Total RNA concentration,[3]; [5],41.00 µg/mL
same,encapsulation efficiency higher than ALC-0315,[3]; difference vs ALC-0315,26.4%
same,encapsulation efficiency higher than HIMA,[3]; difference vs HIMA (HHMA),29.5%
same,encapsulation efficiency higher than SM-102,[3]; difference vs SM-102,26.8%
same,encapsulation efficiency higher than YK-009,[3]; difference vs YK-009,26.3%
same,encapsulation efficiency higher than compound 21,[3]; difference vs compound 21,31.7%
same,encapsulation efficiency higher than compound 23,[3]; difference vs compound 23,33.5%
same,"drug loading concentration, times that of ALC-0315",[3]; ratio vs ALC-0315,1.39
same,"total RNA concentration, times that of ALC-0315",[3]; ratio vs ALC-0315,1.08
same,"drug loading concentration, times that of HIMA",[3]; ratio vs HIMA (HHMA),1.15
same,"total RNA concentration, times that of HIMA",[3]; ratio vs HIMA (HHMA),1.13
same,"drug loading concentration, times that of SM-102",[3]; ratio vs SM-102,1.41
same,"total RNA concentration, times that of SM-102",[3]; ratio vs SM-102,1.14
same,"drug loading concentration, times that of YK-009",[3]; ratio vs YK-009,1.36
same,"total RNA concentration, times that of YK-009",[3]; ratio vs YK-009,1.06
same,"drug loading concentration, times that of compound 21",[3]; ratio vs compound 21,1.71
same,"total RNA concentration, times that of compound 21",[3]; ratio vs compound 21,1.42
same,"drug loading concentration, times that of compound 23",[3]; ratio vs compound 23,1.87
same,"total RNA concentration, times that of compound 23",[3]; ratio vs compound 23,1.32
same,PDI,"[4]; LNP formulation of the cationic lipid, 25° C.",11.7%
same,Particle size,"[4]; LNP formulation of the cationic lipid/DSPC/cholesterol/DMG-PEG2000 49:10:39.5:1.5, 25° C.",175 nm
